Read-outs that look alike come from different tables or passages of the source.

Consider four compounds from US6511662B1, “Treatment of cytomegalovirus using aminopeptidase N” (priority 1993, dated 2003).

The target of one test is T1, human aminopeptidase N (Homo sapiens, UniProt P15144).
T1 construct: endogenous in cells
The test is described as follows: Aminopeptidase activity on intact cells with substrate alanine-p-nitroanilide. Format: cell-based. The note with it: concentrations as in footnote d. The method, then: (§1) Method. Infection of HL734 with CMV RC256 was performed as described in FIG. 1 in the presence of serial dilutions of either UT71 or a control mouse ascites. Cells were washed, fixed with glutaraldhyde and assayed for β-gal expression by incubation with p-nitrophenyl-β-D-galactopyranoside (1 mg/ml) and the production of p-nitrophenol was measured spectrophotometrically at 410 nm. To measure the effect of aminopeptidase inhibitors on viral infection, HL734 were preincubated with increasing concentrations of bestatin for 1 hour at 37° C., infected with CMV strain AD169 at an MOI=1-10 or SFV at an MOI=30 for 1 hour at 37° C., washed, and incubated in fresh media for six hours at 37° C. After fixation in ice cold acetone/methanol (1/1), CMV nuclear antigens were detected with a mouse monoclonal to the 72K CMV mIE protein (NEW/Dupont, Inc.) followed by a phycoerythrine-labelled F(ab′)2 fragment of rabbit-anti mouse IgG Dakopatts, Inc). […] Binding of HCMV to MRC-5 cells was carried out by incubating increasing concentration of ^35S-HCMV with MRC-5 cells for 2 hours at 4° C. Incubation was carried out in the presence of mouse IgG (Sigma, Inc.) or anti-leuM7 (Becton Dickinson, Inc.) at a concentration of 16 μg/ml. Cells were washed five times with hepes-buffered saline, solubilized with 0.5 M NaOH, and cell-associated ^35S-labelled virions was measured quantitatively by liquid scintillation counting. Aminopeptidase activity on intact cells was measured by plating 1-5×10^4 cells in 96-well plates, incubating overnight in fresh media, and the washed and incubated with alanine-p-nitroanilide (6 mM) at 37° C. At various times, the free p-nitroanilide released was measured spectrophoto-metrically at 410 nm. The aminopeptidase activity was normalized to cell number measured by BCA protein assay (Pierce). All measurements were determined in triplicate.
To investigate whether the enzymatic activity of APN is necessary for CMV infection, four different aminopeptidase inhibitors, actinonin, bestatin, 2,2′-dipyridyl and 1,10-phenanthroline, were evaluated for their effect on enzymatic activity and CMV infection bestatin and actinonin are competitive inhibitors of arinoneptidases, ard 1,10-phenanthroline and 2,2′-dipyridyl inhibit aminopeptidase activity by chelating zinc required for enzyme function. […] Toxicity of these substances, measured by trypan blue uptake in cells treated with the inhibitors, was less than 10% in the highest concentrations used (data not shown).

Test [1] relates to Semliki Forest Virus (SFV). The test is described as follows: Semliki Forest Virus infection of HL734 cells, immunocytochemistry. Format: cell-based. The note with it: concentrations as in footnote d.
Source text: (§2) FIG. 2. Ability to inhibit infection by compounds that interact with human aminopeptidase N. Panel a: HL734 cells were infected with CMV strain RC256 in the presence of serial dilutions of either U71 (▪) or control mouse ascites ([]). Infection was quantitatively determined by spectrophotometric measurement of the cleavage of p-nitrophenyl-β-D-galactopyranoside by β-gal. Panel b: HL734 were infected with CMV strain AD169 (▪) or Semliki Forest Virus (SFV) ([]) in the presence of increasing concentration of bestatin. Infection was quantitatively determined by immunocytochemistry using an antibody to the mIE protein of CMV or immune serum to SFV and enumeration of infected calls. Panel c: the binding of ^35S-HCMV to MRC-5 cells in the presence of mouse IgG (X) or antibody to APN (∘). Panel d: the aminopeptidase N activity on the surface of HL734 (▪), NIH-3T3 (∘), hAPN-3T3 ([]), or hAPNmut-3T3 (Δ) cells expressed as optical density of reaction product p-nitroanilide.
as §1, with “Incubation was carried out in the presence of mouse IgG (Sigma, Inc.) or anti-leuM7 (Becton Dickinson, Inc.) at a concentration of 16 μg/ml.” left out

The test system of the next test is CMV strain AD169. As to the kind of experiment: CMV AD169 infection of HL734 cells in the presence of aminopeptidase inhibitors, mIE immunocytochemistry. Format: cell-based, human cytomegalovirus.
Source text: as §2, with “Ability to inhibit infection by compounds that interact with human aminopeptidase N. Panel a: HL734 cells were infected with CMV strain RC256 in the presence of serial dilutions of either U71 (▪) or control mouse ascites ([]).” left out
as §1
To investigate whether the enzymatic activity of APN is necessary for CMV infection, four different aminopeptidase inhibitors, actinonin, bestatin, 2,2′-dipyridyl and 1,10-phenanthroline, were evaluated for their effect on enzymatic activity and CMV infection bestatin and actinonin are competitive inhibitors of arinoneptidases, ard 1,10-phenanthroline and 2,2′-dipyridyl inhibit aminopeptidase activity by chelating zinc required for enzyme function.

Setting [2] is: Human betaherpesvirus 5, AD169, read-out: 50% inhibitory dose for CMV infection.
[3] abbreviates: chemical inhibitors at maximum non-toxic concentration: actinonin 5.45 mM, bestatin 4.35 mM, 1,10-phenanthroline 0.45 mM, 2,2′-dipyridyl 3.74 mM.

T1 sequence (P15144 whole entry): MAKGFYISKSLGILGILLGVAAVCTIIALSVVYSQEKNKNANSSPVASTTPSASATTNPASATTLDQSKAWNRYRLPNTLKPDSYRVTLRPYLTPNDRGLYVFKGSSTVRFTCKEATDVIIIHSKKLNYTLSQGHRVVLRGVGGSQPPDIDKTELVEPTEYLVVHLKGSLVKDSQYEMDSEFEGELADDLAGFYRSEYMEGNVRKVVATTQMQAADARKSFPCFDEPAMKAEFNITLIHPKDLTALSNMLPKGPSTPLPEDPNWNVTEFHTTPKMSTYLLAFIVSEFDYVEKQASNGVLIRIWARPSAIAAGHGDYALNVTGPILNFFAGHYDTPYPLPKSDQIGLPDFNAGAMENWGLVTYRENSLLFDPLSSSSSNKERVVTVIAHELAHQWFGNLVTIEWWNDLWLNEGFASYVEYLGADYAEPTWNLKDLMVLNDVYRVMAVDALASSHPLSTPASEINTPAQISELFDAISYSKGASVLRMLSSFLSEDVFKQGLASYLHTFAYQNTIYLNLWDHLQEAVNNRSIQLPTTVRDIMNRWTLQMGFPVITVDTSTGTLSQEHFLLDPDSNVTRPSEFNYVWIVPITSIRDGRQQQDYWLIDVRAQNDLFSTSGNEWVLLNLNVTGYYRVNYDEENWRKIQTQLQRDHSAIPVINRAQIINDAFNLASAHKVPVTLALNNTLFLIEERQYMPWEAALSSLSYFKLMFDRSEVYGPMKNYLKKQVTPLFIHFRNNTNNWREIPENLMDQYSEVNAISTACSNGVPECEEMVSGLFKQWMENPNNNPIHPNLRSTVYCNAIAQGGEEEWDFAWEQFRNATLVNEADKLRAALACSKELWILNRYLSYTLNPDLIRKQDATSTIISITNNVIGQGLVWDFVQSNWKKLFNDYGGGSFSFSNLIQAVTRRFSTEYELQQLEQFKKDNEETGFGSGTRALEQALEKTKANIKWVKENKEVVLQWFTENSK

For the compound `c1cnc2c(c1)ccc1cccnc12` [1,10-phenanthroline], the “Inhibition of aminopeptidase activity” value on human aminopeptidase N is reported as “+ (+ = >50 inhibition compared to mouse IgG control)”. Further, the “Inhibition of SFV Infection” value in test [1] was “− (− = no inhibition)”. Also, the IC50 in the test with CMV strain AD169 (setting [2]) is 250 µM. Moreover, in the test with CMV strain AD169 (setting [3]), the “Inhibition of CMV Infection” value is “+ (+ = >50 inhibition compared to mouse IgG control)”.

For the compound `c1ccc(-c2ccccn2)nc1` [2,2′-dipyridyl], the “Inhibition of aminopeptidase activity” value on human aminopeptidase N is given as “+ (+ = >50 inhibition compared to mouse IgG control)”. The “Inhibition of SFV Infection” value in test [1] is on record as “− (− = no inhibition)”. The IC50 with CMV strain AD169 (HL734 cells, CMV AD169, read-out: 50% inhibitory dose for CMV infection) is 2800 µM. In the test with CMV strain AD169 (setting [3]), the “Inhibition of CMV Infection” value is listed as “+ (+ = >50 inhibition compared to mouse IgG control)”.

For orientation: inhibition means the share of the control response that was lost under treatment. For `CCCCC[C@H](CC(=O)NO)C(=O)N[C@H](C(=O)N1CCC[C@H]1CO)C(C)C` [actinonin], at human aminopeptidase N, the “Inhibition of aminopeptidase activity” value is listed as “+ (+ = >50 inhibition compared to mouse IgG control)”. The “Inhibition of SFV Infection” value in test [1] is on record as “− (− = no inhibition)”. The inhibition at 5450 µM in the test on CMV strain AD169 (Human betaherpesvirus 5, AD169, chemical inhibitors at maximum non-toxic concentration: actinonin 5.45 mM, bestatin 4.35 mM, 1,10-phenanthroline 0.45 mM, 2,2′-dipyridyl 3.74 mM) was over 50%. For the same compound, in the test on CMV strain AD169 (Human betaherpesvirus 5, HL734 cells, CMV AD169, read-out: 50% inhibitory dose for CMV infection), the IC50 turned out to be 3300 µM.

`CC(C)C[C@H](NC(=O)[C@@H](O)[C@H](N)Cc1ccccc1)C(=O)O` [bestatin]: at human aminopeptidase N, the “Inhibition of aminopeptidase activity” value is “+ (+ = >50 inhibition compared to mouse IgG control)”. In test [1], the “Inhibition of SFV Infection” value is given as “− (− = no inhibition)”. Besides, the IC50 with CMV strain AD169 (setting [2]) was determined as 2500 µM. Besides, the inhibition at 4350 µM with CMV strain AD169 (Human betaherpesvirus 5, AD169, read-out: Inhibition of CMV Infection) was over 50%.
